Reference: ChEMBL document CHEMBL4256947, “Treatment of pancreatic and related cancers with 5-acyl-6,7-dihydrothieno[3,2-c]pyridines” (2016)

Molecular target: Protein-cysteine N-palmitoyltransferase HHAT (Homo sapiens) (UniProt Q5VTY9)
Assay: Inhibition of HA/FLAG/His-tagged Hhat (unknown origin) expressed in human 293T cells at 25 uM using biotinylated Shh peptide as substrate pretreated for 20 mins followed by [125I]-iodo-palitoylCoA/substrate addition measured after 1 hr by gamma counting method relative to control

Sequence of Protein-cysteine N-palmitoyltransferase HHAT (Homo sapiens) (Q5VTY9 whole entry): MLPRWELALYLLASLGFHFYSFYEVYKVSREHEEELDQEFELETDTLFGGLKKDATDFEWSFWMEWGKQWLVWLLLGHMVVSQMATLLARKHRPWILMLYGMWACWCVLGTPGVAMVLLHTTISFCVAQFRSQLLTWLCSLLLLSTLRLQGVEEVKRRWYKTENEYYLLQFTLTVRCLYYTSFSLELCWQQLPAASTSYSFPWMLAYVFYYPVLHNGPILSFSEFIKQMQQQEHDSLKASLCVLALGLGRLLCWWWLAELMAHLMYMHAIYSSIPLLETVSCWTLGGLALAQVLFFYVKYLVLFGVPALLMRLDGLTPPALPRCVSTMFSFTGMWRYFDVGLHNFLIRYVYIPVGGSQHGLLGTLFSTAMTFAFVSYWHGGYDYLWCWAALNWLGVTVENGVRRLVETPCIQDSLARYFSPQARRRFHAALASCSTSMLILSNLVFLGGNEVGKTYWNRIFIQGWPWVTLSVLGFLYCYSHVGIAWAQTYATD

inhibition [%]	SMILES
> 75	CCC(C)CNCC(=O)N1CCc2sccc2C1c1cccc(C)n1 (configuration not stated)
> 75	CCC(C)CNCC(=O)N1CCc2sccc2C1c1cccc(C)c1 (configuration not stated)
